Reference: US20110195900A1, “PEPTIDIC PTH RECEPTOR AGONISTS” (FERRING B.V., priority 2008, published 2011)
Non-standard residues stand in square brackets, D forms with d. Residues, ends and D or L forms follow the SMILES beside them. 1Nal = N[C@@H](Cc1cccc2ccccc12)C(=O)O; β3hI = CC[C@H](C)[C@H](N)CC(=O)O; β3hF = N[C@H](CC(=O)O)Cc1ccccc1; hSer = N[C@@H](CCO)C(=O)O; Nle = CCCC[C@H](N)C(=O)O; Aib = CC(C)(N)C(=O)O

Target: T1, human PTH-1 receptor (Homo sapiens, UniProt Q03431)
T1 construct: expressed in transfected cells; host or cells: HEK-293
T1 sequence (Q03431 27-593): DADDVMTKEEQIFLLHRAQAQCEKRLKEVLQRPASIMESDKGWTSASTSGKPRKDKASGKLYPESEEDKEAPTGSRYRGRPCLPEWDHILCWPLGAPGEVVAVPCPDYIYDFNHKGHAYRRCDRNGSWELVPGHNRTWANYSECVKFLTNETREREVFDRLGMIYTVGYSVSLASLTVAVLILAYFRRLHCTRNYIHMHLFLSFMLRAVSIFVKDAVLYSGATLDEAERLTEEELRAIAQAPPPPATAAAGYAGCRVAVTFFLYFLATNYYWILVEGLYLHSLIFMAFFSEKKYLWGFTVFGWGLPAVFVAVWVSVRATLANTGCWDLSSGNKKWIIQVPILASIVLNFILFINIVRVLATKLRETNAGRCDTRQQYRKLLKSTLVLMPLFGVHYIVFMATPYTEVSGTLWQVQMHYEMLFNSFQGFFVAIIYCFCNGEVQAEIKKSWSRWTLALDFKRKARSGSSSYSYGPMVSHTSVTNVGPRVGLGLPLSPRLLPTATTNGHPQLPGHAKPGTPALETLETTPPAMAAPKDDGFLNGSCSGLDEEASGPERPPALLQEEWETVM
Experiment: Reporter gene assay (CRE-luciferase) for agonist activity in transiently transfected HEK-293 cells
Type: cell-based
Conditions: for hPTHR-2/hPTHR-1: Table 3, ratio of EC50 values, selectivity for hPTH-1 receptor over hPTH-2 receptor
Method in brief: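 Selectivity came from luciferase transcriptional reporter assays expressing human PTH-2 receptor. PTH-1 agonism used transiently transfected HEK-293 cells carrying SV40-promoter receptor and cAMP-responsive-element luciferase; 4-5 h compound exposure, lysis, luminescence, non-linear-regression EC50/efficacy; ≥3 independent runs, PTH (1-34) control each.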

Q: With `CCCC[C@H](NC(=O)[C@H](CC(C)C)NC(=O)[C@H](CCC(N)=O)NC(=O)[C@@H](NC(=O)[C@H](CCC(=O)O)NC(=O)[C@H](CO)NC(=O)[C@@H](NC(=O)[C@@H](N)CO)C(C)C)[C@@H](C)CC)C(=O)N[C@@H](Cc1c[nH]cn1)C(=O)N[C@@H](CC(N)=O)C(=O)N[C@@H](CC(C)C)C(=O)NCC(=O)N[C@@H](CCCCN)C(=O)N[C@@H](Cc1c[nH]cn1)C(=O)N[C@@H](CC(C)C)C(=O)N[C@@H](CCCCN)C(=O)N[C@@H](CO)C(=O)N[C@H](CC(=O)N[C@@H](CCC(=O)O)C(=O)N[C@@H](CCCNC(=N)N)C(=O)N[C@H](C(=O)N[C@@H](CCC(=O)O)C(=O)N[C@@H](Cc1cccc2ccccc12)C(=O)N[C@@H](CC(C)C)C(=O)N[C@@H](CCCNC(=N)N)C(=O)N[C@@H](CCCCN)C(=O)N[C@@H](CC(C)C)C(=O)N[C@@H](CC(C)C)C(=O)N[C@@H](CCC(N)=O)C(=O)N[C@@H](CC(=O)O)C(=O)N[C@H](C(=O)N[C@@H](Cc1c[nH]cn1)C(=O)N[C@@H](CC(N)=O)C(=O)N[C@@H](Cc1ccccc1)C(N)=O)C(C)C)C(C)C)[C@@H](C)CC` [SEQ ID NO: 34, [Nle^8, Lys^16, β-hIle^18,1-Nal^23, Leu^27] hPTH (1-34)-NH2] (H-SVSEIQL[Nle]HNLGKHLKS[β3hI]ERVE[1Nal]LRKLLQDVHNF-NH2; N-terminus assumed) as the compound, how does the EC50 read?
A: The EC50 was 0.08 nM.

Q: And the hPTHR-2/hPTHR-1?
A: The hPTHR-2/hPTHR-1 was 373.

Q: How did the EC50 turn out when `CCCC[C@H](NC(=O)[C@H](CC(C)C)NC(=O)[C@H](CCC(N)=O)NC(=O)[C@@H](NC(=O)[C@H](CCC(=O)O)NC(=O)[C@H](CO)NC(=O)[C@@H](NC(=O)[C@@H](N)CO)C(C)C)[C@@H](C)CC)C(=O)N[C@@H](Cc1c[nH]cn1)C(=O)N[C@@H](CO)C(=O)N[C@@H](CC(C)C)C(=O)NCC(=O)N[C@@H](CCCCN)C(=O)N[C@@H](Cc1c[nH]cn1)C(=O)N[C@@H](CC(C)C)C(=O)N[C@@H](CCCCN)C(=O)N[C@@H](CO)C(=O)N[C@H](CC(=O)N[C@@H](CCC(=O)O)C(=O)N[C@@H](CCCNC(=N)N)C(=O)N[C@H](C(=O)N[C@@H](CCC(=O)O)C(=O)N[C@@H](Cc1cccc2ccccc12)C(=O)N[C@@H](CC(C)C)C(=O)N[C@@H](CCCNC(=N)N)C(=O)N[C@@H](CCCCN)C(=O)N[C@@H](CC(C)C)C(=O)N[C@@H](CC(C)C)C(=O)N[C@@H](CCC(N)=O)C(=O)N[C@@H](CCCNC(=N)N)C(=O)N[C@H](C(=O)N[C@@H](Cc1c[nH]cn1)C(=O)N[C@@H](CCC(=O)O)C(=O)N[C@@H](Cc1ccccc1)C(N)=O)C(C)C)C(C)C)[C@@H](C)CC` [SEQ ID NO: 40, [Nle^8, Ser^10, Lys^16, β-hIle^18,1-Nal^23, Leu^27, Arg^30, Glu^33] hPTH(1-34)-NH2] (H-SVSEIQL[Nle]HSLGKHLKS[β3hI]ERVE[1Nal]LRKLLQRVHEF-NH2) was run?
A: The EC50 was 0.12 nM.

Q: What about the hPTHR-2/hPTHR-1 of the same compound?
A: Its hPTHR-2/hPTHR-1 is 69.

Q: How did the EC50 turn out when `CCCC[C@H](NC(=O)[C@H](CC(C)C)NC(=O)[C@H](CCC(N)=O)NC(=O)[C@@H](NC(=O)[C@H](CCC(=O)O)NC(=O)[C@H](CO)NC(=O)[C@@H](NC(=O)C(C)(C)N)C(C)C)[C@@H](C)CC)C(=O)N[C@@H](Cc1c[nH]cn1)C(=O)N[C@@H](CC(N)=O)C(=O)N[C@@H](CC(C)C)C(=O)NCC(=O)N[C@@H](CCCCN)C(=O)N[C@@H](Cc1c[nH]cn1)C(=O)N[C@@H](CC(C)C)C(=O)N[C@@H](CC(N)=O)C(=O)N[C@@H](CO)C(=O)N[C@H](CC(=O)N[C@@H](CCC(=O)O)C(=O)N[C@@H](CCCNC(=N)N)C(=O)N[C@H](C(=O)N[C@@H](CCC(=O)O)C(=O)N[C@@H](Cc1cccc2ccccc12)C(=O)N[C@@H](CC(C)C)C(=O)N[C@@H](CCCNC(=N)N)C(=O)N[C@@H](CCCCN)C(=O)N[C@@H](CC(C)C)C(=O)N[C@@H](CC(C)C)C(=O)N[C@@H](CCC(N)=O)C(=O)N[C@@H](CC(=O)O)C(=O)N[C@H](C(=O)N[C@@H](Cc1c[nH]cn1)C(=O)N[C@@H](CC(N)=O)C(=O)N[C@@H](Cc1ccccc1)C(N)=O)C(C)C)C(C)C)Cc1ccccc1` [SEQ ID NO: 42, [Aib^1, Nle^8, β-hPhe^18,1-Nal^23, Leu^27 hPTH (1-34)-NH2] (H-[Aib]VSEIQL[Nle]HNLGKHLNS[β3hF]ERVE[1Nal]LRKLLQDVHNF-NH2; N-terminus assumed) was run?
A: The EC50 was 0.06 nM.

Q: And the hPTHR-2/hPTHR-1?
A: Its hPTHR-2/hPTHR-1 is 88.

Q: `CCCC[C@H](NC(=O)[C@H](CC(C)C)NC(=O)[C@H](CCC(N)=O)NC(=O)[C@@H](NC(=O)[C@H](CCC(=O)O)NC(=O)[C@H](CO)NC(=O)[C@@H](NC(=O)[C@@H](N)CO)C(C)C)[C@@H](C)CC)C(=O)N[C@@H](Cc1c[nH]cn1)C(=O)N[C@@H](CC(N)=O)C(=O)N[C@@H](CC(C)C)C(=O)NCC(=O)N[C@@H](CCCCN)C(=O)N[C@@H](Cc1c[nH]cn1)C(=O)N[C@@H](CC(C)C)C(=O)N[C@@H](CC(N)=O)C(=O)N[C@@H](CO)C(=O)N[C@H](CC(=O)N[C@@H](CCC(=O)O)C(=O)N[C@@H](CCCNC(=N)N)C(=O)N[C@H](C(=O)N[C@@H](CCC(=O)O)C(=O)N[C@@H](Cc1cccc2ccccc12)C(=O)N[C@@H](CC(C)C)C(=O)N[C@@H](CCCNC(=N)N)C(=O)N[C@@H](CCCCN)C(=O)N[C@@H](CC(C)C)C(=O)N[C@@H](CC(C)C)C(=O)N[C@@H](CCC(N)=O)C(=O)N[C@@H](CC(=O)O)C(=O)N[C@H](C(=O)N[C@@H](Cc1c[nH]cn1)C(=O)N[C@@H](CC(N)=O)C(=O)N[C@@H](Cc1ccccc1)C(N)=O)C(C)C)C(C)C)Cc1ccccc1` [SEQ ID NO: 46, [Nle^8, β-hPhe^18,1-Nal^23, Leu^27] hPTH (1-34)-NH2] (H-SVSEIQL[Nle]HNLGKHLNS[β3hF]ERVE[1Nal]LRKLLQDVHNF-NH2) was tested. Which EC50 did it give?
A: Its EC50 is 0.11 nM.

Q: And the hPTHR-2/hPTHR-1?
A: Its hPTHR-2/hPTHR-1 is 94.

Q: `CCCC[C@H](NC(=O)[C@H](CC(C)C)NC(=O)[C@H](CCC(N)=O)NC(=O)[C@@H](NC(=O)[C@H](CCC(=O)O)NC(=O)[C@H](CO)NC(=O)[C@@H](NC(=O)C(C)(C)N)C(C)C)[C@@H](C)CC)C(=O)N[C@@H](Cc1c[nH]cn1)C(=O)N[C@@H](CC(N)=O)C(=O)N[C@@H](CC(C)C)C(=O)NCC(=O)N[C@@H](CCCCN)C(=O)N[C@@H](Cc1c[nH]cn1)C(=O)N[C@@H](CC(C)C)C(=O)N[C@@H](CC(N)=O)C(=O)N[C@H](CC(=O)N[C@@H](CCOC)C(=O)N[C@@H](CCC(=O)O)C(=O)N[C@@H](CCCNC(=N)N)C(=O)N[C@H](C(=O)N[C@@H](CCC(=O)O)C(=O)N[C@@H](Cc1cccc2ccccc12)C(=O)N[C@@H](CC(C)C)C(=O)N[C@@H](CCCNC(=N)N)C(=O)N[C@@H](CCCCN)C(=O)N[C@@H](CC(C)C)C(=O)N[C@@H](CC(C)C)C(=O)N[C@@H](CCC(N)=O)C(=O)N[C@@H](CC(=O)O)C(=O)N[C@H](C(=O)N[C@@H](Cc1c[nH]cn1)C(=O)N[C@@H](CC(N)=O)C(=O)N[C@@H](Cc1ccccc1)C(N)=O)C(C)C)C(C)C)Cc1ccccc1` [SEQ ID NO: 48, [Aib^1, Nle^8, β-hPhe^17, hSer(OMe)^18,1-Nal^23, Leu^27] hPTH-(1-34)-NH2] (H-[Aib]VSEIQL[Nle]HNLGKHLN[β3hF][hSer](Me)ERVE[1Nal]LRKLLQDVHNF-NH2) was tested. Which EC50 did it give?
A: Its EC50 is 0.1 nM.

Q: What about the hPTHR-2/hPTHR-1 of the same compound?
A: Its hPTHR-2/hPTHR-1 is 1152.
